In assay [1] the test system is Acute hypoxia in mice; survival of the brain. The assay is described as follows: Acute hypoxia in mice (hypobaric); brain survival time to final respiratory gasp. The following applies: for change in vivo at 300 mg/kg: 300 mg/kg I.P. It counts as in vivo, Male CD1 mice (Charles River). The protocol: (§1) The compounds of the present invention were tested in respect of their capacity to prolong the survival of cerebral tissue during acute hypoxia in mice, or to maintain the level of tissue energy-rich compounds in rats subjected to a fall in the oxygen supply [Pharmacology of Cerebral Ischemia, p. 334-339 (1968) Elsevier Science Publishers B.V., J. Krieglstein ed.]. […] Forsch. Drug. Res. (1986), 36 II No. 9, p. 1314-1320].
The survival of the brain is assessed by measuring the time at which the final respiratory gasp is observed.
The survival time of a treated batch is compared with that of a control batch receiving only the solvent.
The percentage increase in the survival time after the animals are treated with the compounds of the invention is shown in Table II.

In assay [2] the test system is brain energy-rich compounds (ATP, ADP, AMP). Nature of the assay: Acute hypoxia in rats; protection of tissue energy-rich compounds in brain (ATP, energy content). It counts as in vivo, Male Fischer 344 rats (Charles River). The following applies: for % inhibition of the effects of hypoxia, ATP / % inhibition of the effects of hypoxia, EC (tissue energy content): 3% oxygen for 2 minutes. The protocol: as §1
Whereas the control rats breath a gaseous mixture containing 21% of oxygen and 79% of nitrogen, the rats subjected to hypoxia breath a mixture of 3% oxygen and 97% nitrogen for 2 minutes.
At the end of the hypoxic period, the animals are rapidly sacrificed by total immersion in liquid nitrogen. The frozen brain is removed and the energy-rich compounds (ATP, ADP, AMP) are extracted and assayed by the luciferin luminescence method.
The tissue energy content (EC) is calculated according to ATKINSON's formula: [formula]

[3] abbreviates: Mus musculus, ip, 100 mg/kg I.P., 30 minutes before hypoxia, mice, read-out: Percentage increase in the survival time.
Where [4] appears, read: 100 mg/kg I.P., 30 minutes before hypoxia, mice.
Setting [5] is: Mus musculus, ip, 30 mg/kg I.P., 30 minutes before hypoxia, mice, read-out: Percentage increase in the survival time.
Where [6] appears, read: Mus musculus, ip, 10 mg/kg I.P., 30 minutes before hypoxia, mice, read-out: Percentage increase in the survival time.
The mark [7] stands for this setting: Mus musculus, ip, 30 minutes before hypoxia, mice, read-out: Percentage increase in the survival time.
Where [8] appears, read: Mus musculus, ip, read-out: Percentage increase in the survival time.

Each structure is given as a SMILES string. Where a name gives a salt, the structure may show the parent alone. Read-outs that look alike come from different tables or passages of the source.

With `O=C(O)CC1(c2ccccc2)C(=O)Oc2ccc(Cl)cc21` (stereo not shown) [Example 1, 2-(5-Chloro-2,3-dihydro-2-oxo-3-phenyl-3-benzofuranyl)acetic acid], the change in vivo at 100 mg/kg in assay [1] (setting [3]) turned out to be 46%. In addition, in assay [2] (100 mg/kg I.P.), the “% inhibition of the effects of hypoxia, ATP” value (from here on “% inhibition … ATP”) is reported as 54% and the “% inhibition of the effects of hypoxia, EC (tissue energy content)” value (“% inhibition … (tissue energy content)” for short) is listed as 61.7%.

On to `O=C(CC1(c2ccccc2)C(=O)Oc2ccc(Cl)cc21)N1CCN(c2ccc(C(F)(F)F)cn2)CC1` (stereo not shown) [Example 9, 2-(5-Chloro-2,3-dihydro-2-oxo-3-phenyl-3-benzofuranyl)-1-[4-(5-trifluoromethyl-2-pyridyl)piperazinyl]-1-oxoethane], for which the “Percentage increase in the survival time” value in assay [1] (3 mg/kg I.P., 30 minutes before hypoxia, mice) was “+65%”; in assay [1] (10 mg/kg I.P., 30 minutes before hypoxia, mice) it was “+82%”; in assay [1] (30 mg/kg I.P., 30 minutes before hypoxia, mice), “+77%”; in assay [1] (setting [4]) it was “greater than 180%”; in assay [1] (100 mg/kg I.P., 30 minutes before hypoxia, mice, listed as Ex. 9), “+183%”. In addition, the “% inhibition … ATP” value in assay [2] (30 mg/kg I.P.) is 65.6%. Further, the “% inhibition … (tissue energy content)” value in assay [2] (30 mg/kg I.P.) is on record as 60.1%.

For the molecule `O=C(CC1(c2ccccc2)C(=O)Oc2ccc(Cl)cc21)N1CCN(Cc2ccc3c(c2)OCO3)CC1` (stereo not shown) [Example 16, 2-(5-Chloro-2,3-dihydro-2-oxo-3-phenyl-3-benzofuranyl)-1-[4-(3,4-methylenedioxybenzyl)piperazinyl]-1-oxoethane], the “Percentage increase in the survival time” value in assay [1] (100 mg/kg I.P., 30 minutes before hypoxia, mice, listed as Ex. 16) is “+100%”. The change in vivo at 30 mg/kg in assay [1] (setting [5]) stood at 64%. Also, in assay [1] (setting [3]), the change in vivo at 100 mg/kg was 100%. Besides, in assay [2] (100 mg/kg I.P.), the “% inhibition … ATP” value stood at 77.5% and the “% inhibition … (tissue energy content)” value was found to be 76.3%.

For `O=C(CC1(c2ccccc2)C(=O)Oc2ccc(Cl)cc21)N1CCN(c2cccc(C(F)(F)F)c2)CC1` (stereo not shown) [Example 18, 2-(5-Chloro-2,3-dihydro-2-oxo-3-phenyl-3-benzofuranyl)-1-[4-(3-trifluoromethylphenyl)piperazinyl)-1-oxoethane hydrochloride], the change in vivo at 10 mg/kg in assay [1] (setting [6]) was found to be 41%. The change in vivo at 30 mg/kg in assay [1] (setting [5]) was 53%. Further, the change in vivo at 100 mg/kg in assay [1] (setting [3]) was 88%. The change in vivo at 300 mg/kg in assay [1] (setting [7]) worked out at 103%.

`Cc1cccc(N2CCN(C(=O)CC3(c4ccccc4)C(=O)Oc4ccc(Cl)cc43)CC2)c1` (stereo not shown) [Example 19, 2-(5-Chloro-2,3-dihydro-2-oxo-3-phenyl-3-benzofuranyl)-1-[4-(3-methylphenyl)piperazinyl]-1oxoethane hydrochloride]: the change in vivo at 100 mg/kg in assay [1] (setting [3]) is 76%.

Consider `O=C(CC1(c2ccccc2)C(=O)Oc2ccc(F)cc21)N1CCN(Cc2ccc3c(c2)OCO3)CC1` (stereo not shown) [Example 20, 2-(5-Fluoro-2,3-dihydro-2-oxo-3-phenyl-3-benzofuranyl)-1-[4-(3,4-methylenedioxybenzyl)piperazinyl]-1-oxoethane hydrochloride], for which the “Percentage increase in the survival time” value in assay [1] (100 mg/kg I.P., 30 minutes before hypoxia, mice, listed as Ex. 20, hydrochloride) is listed as “+100%”. Besides, the change in vivo at 10 mg/kg in assay [1] (setting [6]) came out at 52%. The change in vivo at 30 mg/kg in assay [1] (setting [5]) came out at 104%. Besides, in assay [1] (setting [3]), the change in vivo at 100 mg/kg came to 100%. Besides, in assay [1] (setting [7]), the change in vivo at 300 mg/kg was 128%. For the same molecule, in assay [2] (30 mg/kg I.P.), the “% inhibition … ATP” value turned out to be 56.9% and the “% inhibition … (tissue energy content)” value worked out at 61.3%. In assay [2] (100 mg/kg I.P.), the “% inhibition … ATP” value is on record as 70.2% and the “% inhibition … (tissue energy content)” value worked out at 71.5%.

As to `CN(CC(=O)O)C(=O)CC1(c2ccccc2)C(=O)Oc2ccccc21` (stereo not shown) [Example 21, N-Methyl-N-[2-(2,3-dihydro-2-oxo-3-phenyl-3-benzofuranyl)acetyl]glycine], the change in vivo at 100 mg/kg in assay [1] (setting [3]) turned out to be 14%.

Regarding `O=C(CC1(c2ccccc2)C(=O)Oc2ccccc21)N1CCN(Cc2ccc3c(c2)OCO3)CC1` (stereo not shown) [Example 22, 2-(2,3-Dihydro-2-oxo-3-phenyl-3-benzofuranyl)-1-[4-(3,4-methylenedioxybenzyl)piperazinyl]-1-oxoethane hydrochloride], in assay [1] (100 mg/kg I.P., 30 minutes before hypoxia, mice, listed as Ex. 22, hydrochloride), the “Percentage increase in the survival time” value is recorded as “+126%”. Further, in assay [1] (setting [6]), the change in vivo at 10 mg/kg is 11%. The change in vivo at 30 mg/kg in assay [1] (setting [5]) was determined as 42%. For the same molecule, in assay [1] (setting [3]), the change in vivo at 100 mg/kg was 126%.

With `Cc1cccc(CN2CCN(C(=O)CC3C(=O)Oc4ccccc43)CC2)c1` (stereo not shown) [Example 25, 2-(2,3-Dihydro-2-oxo-3-benzofuranyl)-1-[4-(3-methylbenzyl)piperazinyl]-1-oxoethane hydrochloride], in assay [2] (100 mg/kg I.P.), the “% inhibition … ATP” value stood at 50.5% and the “% inhibition … (tissue energy content)” value was 52.6%.

In the case of `Cc1cccc(N2CCN(C(=O)CC3C(=O)Oc4ccc(Cl)cc43)CC2)c1` (stereo not shown) [Example 26, 2-(5-Chloro-2,3-dihydro-2-oxo-3-benzofuranyl)-1-[4-(3-methylphenyl)piperazinyl]-1-oxoethane hydrochloride], the change in vivo at 10 mg/kg in assay [1] (setting [6]) turned out to be 52%. The change in vivo at 30 mg/kg in assay [1] (setting [5]) was determined as 53%. Also, the change in vivo at 100 mg/kg in assay [1] (setting [3]) was > 130%. Also, the change in vivo at 300 mg/kg in assay [1] (setting [7]) is 190%.

Take `O=C(CC1(c2ccccc2)C(=O)Oc2ccc(Cl)cc21)N1CCN(c2cc(C(F)(F)F)ccn2)CC1` (stereo not shown) [Example 27, 2-(5-Chloro-2,3-dihydro-2-oxo-3-phenyl-3-benzofuranyl)-1-[4-(4-trifluoromethyl-2-pyridyl)piperazinyl]-1-oxoethane]: the change in vivo at 10 mg/kg in assay [1] (setting [6]) turned out to be 36%. Also, the change in vivo at 30 mg/kg in assay [1] (setting [5]) turned out to be 59%. Besides, the change in vivo at 100 mg/kg in assay [1] (setting [3]) is 76%.

With `CN(C(=O)CC1(c2ccccc2)C(=O)Oc2ccc(Cl)cc21)[C@@H](Cc1ccccc1)C(=O)O` (stereo partly shown) [Example 28, N-[2-(5-Chloro-2,3-dihydro-2-oxo-3-phenyl-3-benzofuranyl)acetyl]-N-methylphenylalanine], the change in vivo at 100 mg/kg in assay [1] (setting [3]) came out at 90%.

For the molecule `O=C(O)CN1CCN(C(=O)CC2(c3ccccc3)C(=O)Oc3ccc(Cl)cc32)CC1` (stereo not shown) [Example 29, 2-(5-Chloro-2,3-dihydro-2-oxo-3-phenyl-3-benzofuranyl)-1-(4-carboxymethylpiperazinyl)-1-oxoethane hydrochloride], in assay [1] (setting [5]), the change in vivo at 30 mg/kg is 32%. In addition, the change in vivo at 100 mg/kg in assay [1] (setting [3]) turned out to be 66%.

For `COc1cccc(C2CCCN(C(=O)CC3(c4ccccc4)C(=O)Oc4ccc(Cl)cc43)C2)c1` (stereo not shown) [Example 30, 2-(5-Chloro-2,3-dihydro-2-oxo-3-phenyl-3-benzofuranyl)-1-[3-(3-methoxyphenyl)piperidyl]-1-oxoethane], the change in vivo at 10 mg/kg in assay [1] (setting [6]) stood at 32%. Further, the change in vivo at 30 mg/kg in assay [1] (setting [5]) stood at 36%. The change in vivo at 100 mg/kg in assay [1] (setting [3]) was 103%.

`CCN1CCCC1CN(C)C(=O)CC1(c2ccccc2)C(=O)Oc2ccc(Cl)cc21` (stereo not shown) [Example 32, 2-(5-Chloro-2-oxo-3-phenyl-3-benzofuranyl)-1-[(1-ethylpyrrolidinyl)methyl]methylamino-1-oxoethanehydrochloride]: the change in vivo at 30 mg/kg in assay [1] (setting [5]) stood at 26%.

In the case of `CN(C)CCOC(=O)COc1ccc(Cl)cc1` [Meclofenoxate, meclofenoxate, reference compound], the “Percentage increase in the survival time” value in assay [1] (setting [4]) is reported as “+22%”. Further, in assay [1] (setting [8]), the change in vivo at 30 mg/kg came out at 4%, the change in vivo at 100 mg/kg is 22% and the change in vivo at 600 mg/kg amounted to 190%. Further, in assay [2] (300 mg/kg I.P.), the “% inhibition … ATP” value was found to be 59.7% and the “% inhibition … (tissue energy content)” value is reported as 69.6%.

As to `NC(=O)CN1CCCC1=O` [Piracetam, piracetam, reference compound], the “Percentage increase in the survival time” value in assay [1] (setting [4]) is listed as “+11%”. The change in vivo at 100 mg/kg in assay [1] (setting [3]) came to 11%. Besides, the change in vivo at 1000 mg/kg in assay [1] (Mus musculus, ip, 1000 mg/kg I.P., 30 minutes before hypoxia, mice, read-out: Percentage increase in the survival time) was found to be 25%. In addition, in assay [2] (300 mg/kg), the “antihypoxic effect / protection in words” value is given as “only very little protection”. In addition, the “% inhibition … (tissue energy content)” value in assay [2] (300 mg/kg I.P.) came to 1.6%.
